Assay results taken from ChEMBL document CHEMBL1139227, “Discovery of a series of 6,7-dimethoxy-4-pyrrolidylquinazoline PDE10A inhibitors” (J Med Chem, 2007).
The source made the active and inactive calls. The calls are words filed in the database; no cut-off is given here.

Key:
[1] = target: cGMP-inhibited 3',5'-cyclic phosphodiesterase 3A (Homo sapiens, UniProt Q14432); test: Inhibition of human recombinant PDE3A transfected in Sf9 cells by SPA
[2] = Inhibition of rat recombinant PDE10A transfected in Sf9 cells by SPA
[3] = target: cGMP-inhibited 3',5'-cyclic phosphodiesterase 3B (Homo sapiens, UniProt Q13370); test: Inhibition of human recombinant PDE3B transfected in Sf9 cells by SPA
cGMP-inhibited 3',5'-cyclic phosphodiesterase 3B, sequence (Q13370 whole entry): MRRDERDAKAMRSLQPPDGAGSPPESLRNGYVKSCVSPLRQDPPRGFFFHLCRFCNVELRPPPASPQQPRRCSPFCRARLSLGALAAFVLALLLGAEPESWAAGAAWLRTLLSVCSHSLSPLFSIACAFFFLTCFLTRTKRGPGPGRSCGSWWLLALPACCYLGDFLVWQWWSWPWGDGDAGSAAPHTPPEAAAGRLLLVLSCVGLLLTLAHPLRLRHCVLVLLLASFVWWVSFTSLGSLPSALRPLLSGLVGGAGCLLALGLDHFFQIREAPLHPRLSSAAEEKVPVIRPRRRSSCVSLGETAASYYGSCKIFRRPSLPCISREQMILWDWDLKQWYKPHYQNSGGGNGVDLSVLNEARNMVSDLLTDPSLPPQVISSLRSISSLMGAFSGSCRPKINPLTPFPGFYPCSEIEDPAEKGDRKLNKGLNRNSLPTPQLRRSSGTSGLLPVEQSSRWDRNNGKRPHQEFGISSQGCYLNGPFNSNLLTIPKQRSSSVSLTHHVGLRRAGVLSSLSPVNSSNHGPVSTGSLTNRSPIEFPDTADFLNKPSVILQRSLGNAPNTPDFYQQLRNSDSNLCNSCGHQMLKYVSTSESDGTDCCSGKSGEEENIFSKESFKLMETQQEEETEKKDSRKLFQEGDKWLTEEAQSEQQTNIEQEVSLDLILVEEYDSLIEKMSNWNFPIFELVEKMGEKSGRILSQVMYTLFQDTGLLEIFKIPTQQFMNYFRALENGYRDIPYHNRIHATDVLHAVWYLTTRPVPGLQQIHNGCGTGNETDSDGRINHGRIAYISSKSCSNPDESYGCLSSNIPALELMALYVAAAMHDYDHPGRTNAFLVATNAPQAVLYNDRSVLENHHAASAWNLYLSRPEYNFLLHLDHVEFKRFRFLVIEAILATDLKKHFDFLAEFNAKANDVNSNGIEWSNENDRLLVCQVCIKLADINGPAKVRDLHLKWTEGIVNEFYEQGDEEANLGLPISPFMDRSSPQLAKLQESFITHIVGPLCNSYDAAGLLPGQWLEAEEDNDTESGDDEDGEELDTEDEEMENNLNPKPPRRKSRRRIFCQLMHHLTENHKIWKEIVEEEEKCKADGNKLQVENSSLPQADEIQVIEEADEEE

Mus musculus [4] = test: Increase of cGMP level in CD1 mouse striatal tissue at 32 mg/kg, sc; assay type: functional, organism-based; parameters: dose 32 mg/kg; conditions: Striatum
Mus musculus [5] = test: Increase of phosphorylated CREB level in CD1 mice striatal tissue at 32 mg/kg, sc after 90 mins; assay type: functional, organism-based; parameters: dose 32 mg/kg; conditions: Striatum
Mus musculus [6] = test: Increase of phosphorylated CREB level in CD1 mice striatal tissue at 32 mg/kg, sc after 30 mins; assay type: functional, organism-based; parameters: dose 32 mg/kg; conditions: Striatum
Mus musculus [7] = test: Increase of cGMP level in CD1 mouse striatal tissue at 10 mg/kg, sc; assay type: functional, organism-based; parameters: dose 10 mg/kg; conditions: Striatum

cGMP-inhibited 3',5'-cyclic phosphodiesterase 3A, sequence (Q14432 whole entry): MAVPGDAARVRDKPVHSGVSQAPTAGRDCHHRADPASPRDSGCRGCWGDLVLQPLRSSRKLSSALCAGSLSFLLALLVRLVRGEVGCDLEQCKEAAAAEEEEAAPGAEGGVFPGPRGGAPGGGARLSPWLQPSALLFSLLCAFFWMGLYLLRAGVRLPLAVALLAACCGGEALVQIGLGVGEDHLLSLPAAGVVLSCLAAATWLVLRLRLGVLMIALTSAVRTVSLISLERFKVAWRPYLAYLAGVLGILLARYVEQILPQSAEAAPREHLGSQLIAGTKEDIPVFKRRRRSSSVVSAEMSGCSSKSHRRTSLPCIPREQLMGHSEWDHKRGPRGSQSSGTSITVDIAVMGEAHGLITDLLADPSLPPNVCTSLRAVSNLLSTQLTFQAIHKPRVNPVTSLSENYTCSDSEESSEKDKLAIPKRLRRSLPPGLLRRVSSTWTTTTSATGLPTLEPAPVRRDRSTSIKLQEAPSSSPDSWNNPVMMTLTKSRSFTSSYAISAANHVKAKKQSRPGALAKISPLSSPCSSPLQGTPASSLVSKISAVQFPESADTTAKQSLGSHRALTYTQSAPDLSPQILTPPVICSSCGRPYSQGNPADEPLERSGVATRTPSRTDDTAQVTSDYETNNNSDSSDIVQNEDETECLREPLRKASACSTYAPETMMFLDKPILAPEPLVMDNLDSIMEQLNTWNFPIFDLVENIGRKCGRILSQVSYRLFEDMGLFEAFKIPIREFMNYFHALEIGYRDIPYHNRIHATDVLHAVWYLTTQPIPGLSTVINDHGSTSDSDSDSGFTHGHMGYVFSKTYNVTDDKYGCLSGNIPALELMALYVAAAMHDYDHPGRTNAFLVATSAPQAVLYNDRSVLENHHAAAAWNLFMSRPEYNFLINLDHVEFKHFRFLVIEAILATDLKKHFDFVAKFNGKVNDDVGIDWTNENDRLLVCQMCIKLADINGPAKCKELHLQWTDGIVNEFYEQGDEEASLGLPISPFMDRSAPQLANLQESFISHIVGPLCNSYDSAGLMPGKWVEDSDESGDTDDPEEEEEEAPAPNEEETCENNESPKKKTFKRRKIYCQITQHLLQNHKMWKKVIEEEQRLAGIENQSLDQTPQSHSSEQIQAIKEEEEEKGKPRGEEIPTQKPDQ

Structure (SMILES)	Ki [1] [µM]	Ki [2] [µM]	Ki [3] [µM]	Activity (Mus musculus [4])	Activity (Mus musculus [5])	IC50 [2] [µM]	Activity (Mus musculus [6])	Activity (Mus musculus [7])
CCOc1ccc(O[C@@H]2CCN(c3ncnc4cc(OC)c(OC)cc34)C2)cc1	0.161	0.054	0.328	–	–	–	–	–
COc1cc2ncnc(N3CC[C@@H](Oc4cc5ccccc5cn4)C3)c2cc1OC	0.151	0.019	0.196	–	–	–	–	–
COc1cc2ncnc(N3CC[C@@H](Oc4cnc5ccccc5n4)C3)c2cc1OC	0.211	–	0.273	Active	Active	0.006	Active	Active
COc1cc2ncnc(N3CC[C@@H](Oc4ccc(C#N)cc4)C3)c2cc1OC	0.214	–	0.471	–	–	–	–	–
COc1cc2ncnc(N3CC[C@@H](Oc4ccc5ncccc5c4)C3)c2cc1OC	0.104	0.012	0.201	–	–	–	–	–
COc1cc2ncnc(N3CC[C@@H](Oc4ccncc4)C3)c2cc1OC	0.226	0.112	0.685	–	–	–	–	–
COc1cc2ncnc(N3CCc4ccc(S(=O)(=O)N5CCN(C)CC5)cc4C3)c2cc1OC	–	0.025	–	–	–	–	–	–
COc1cc2ncnc(N3CC[C@@H](Oc4ccccc4OC)C3)c2cc1OC	< 0.1	0.24	> 0.1	–	–	–	–	–
COc1cc2ncnc(N3CC[C@@H](Oc4ccc5ccccc5c4)C3)c2cc1OC	0.283	–	0.463	–	–	0.014	–	–
COc1ccc2ccc(O[C@@H]3CCN(c4ncnc5cc(OC)c(OC)cc45)C3)cc2c1	0.273	0.017	0.305	–	–	–	–	–
COc1cc2ncnc(N3CC[C@@H](Oc4ccccn4)C3)c2cc1OC	0.077	0.123	0.207	–	–	–	–	–
COc1ccc(O[C@@H]2CCN(c3ncnc4cc(OC)c(OC)cc34)C2)cc1OC	0.121	0.067	0.26	–	–	–	–	–
COc1ccc(Cc2nccc3cc(OC)c(OC)cc23)cc1OC [PAPAVERINE]	–	0.017	–	–	–	–	–	–
COc1cc2ncnc(N3CC[C@@H](Oc4ccc(OC(F)(F)F)cc4)C3)c2cc1OC	0.739	0.185	1.82	–	–	–	–	–
COc1cc2ncnc(N3CC[C@@H](Oc4cccc(-c5ccccc5)c4)C3)c2cc1OC	0.271	0.136	0.28	–	–	–	–	–
COc1cc2ncnc(N3CC[C@H](Oc4ccccc4OC)C3)c2cc1OC	> 0.1	0.641	> 0.1	–	–	–	–	–
COc1cc2ncnc(N3CC[C@@H](Oc4ccccc4Cl)C3)c2cc1OC	< 0.1	0.198	< 0.1	–	–	–	–	–
COc1cc2ncnc(N3CC[C@@H](Oc4ccccc4C)C3)c2cc1OC	< 0.1	0.326	< 0.1	–	–	–	–	–
CCOc1cccc(O[C@@H]2CCN(c3ncnc4cc(OC)c(OC)cc34)C2)c1	0.061	0.094	0.088	–	–	–	–	–
COc1cc2ncnc(N3CC[C@@H](Oc4cccc5ccccc45)C3)c2cc1OC	0.048	0.21	0.056	–	–	–	–	–
COc1cc2ncnc(N3CC[C@@H](Oc4cccc(C(C)C)c4)C3)c2cc1OC	0.37	0.171	0.474	–	–	–	–	–
COc1ccc2cc(O[C@@H]3CCN(c4ncnc5cc(OC)c(OC)cc45)C3)ccc2c1	0.199	0.018	0.28	–	–	–	–	–
COc1cc2ncnc(N3CC[C@@H](Oc4ccccc4C(F)(F)F)C3)c2cc1OC	< 0.1	0.811	> 0.1	–	–	–	–	–
COc1cc2ncnc(N3CC[C@@H](Oc4cccnc4)C3)c2cc1OC	0.302	0.128	0.748	–	–	–	–	–
COc1cc2ncnc(N3CC[C@@H](Oc4ccc(C(C)(C)C)cc4)C3)c2cc1OC	0.72	0.1	1.89	–	–	–	–	–
COc1cc2ncnc(N3CC[C@@H](Oc4ccc5nc(C)ccc5c4)C3)c2cc1OC	0.152	0.018	0.223	–	–	–	–	–
COc1cc2ncnc(N3CC[C@@H](Oc4ccc5cccnc5c4)C3)c2cc1OC	0.209	0.012	0.24	–	–	–	–	–
COc1cc2ncnc(N3CC[C@@H](Oc4ccc5c(c4)CCC5)C3)c2cc1OC	0.141	0.068	0.237	–	–	–	–	–
COc1cc2ncnc(N3CC[C@@H](Oc4ncc(Cl)cn4)C3)c2cc1OC	0.162	0.044	0.332	–	–	–	–	–
COc1cc2ncnc(N3CC[C@@H](Oc4ccccc4C#N)C3)c2cc1OC	< 0.1	0.13	< 0.1	–	–	–	–	–
